According to PMC11855827, “High-Throughput Screening of Five Compound Libraries for Anthelmintic Activity and Toxicity Leads to the Discovery of Two Flavonoid Compounds” (International Journal of Molecular Sciences, 2025):
Values joined by “and” are separate entries in the source; they are usually repeats but may differ in a detail not shown here. Equal entries are not always repeated. Where two headings read alike, the source gives them in different places.

Tested on: C. elegans
[1] = Table S2, C. elegans SS assay, 110 μM, averages of 4 data points
[2] = Table S2, C. elegans SS assay, 110 μM, 24 h, averages of 4 data points

Compound | Percentage of motility inhibition 0 h [1] [%] | Percentage of motility inhibition 24 h [2] [%] | Percentage of motility inhibition 24 h (110 µM)
CO[C@@]1(NC(=O)Cc2cccs2)C(=O)N2C(C(=O)[O-])=C(COC(N)=O)CS[C@@H]21.[Na+] [Cefoxitin (sodium)] | 0 | 0 | –
CC[C@@H](C(=O)[C@@H](C)[C@@H](O)[C@H](C)CCc1ccc(C)c(O)c1C(=O)[O-])[C@H]1O[C@](CC)([C@H]2CC[C@](O)(CC)[C@H](C)O2)C[C@@H]1C.[Na+] [Lasalocid (sodium)] | 15 | 4 | –
COc1cc(O)c2c(=O)cc(-c3ccc(O)c(O)c3)oc2c1 [Hydroxygenkwanin] | 11 | 13 | –
C[C@H](CCC(=O)[O-])[C@H]1CC[C@H]2[C@@H]3[C@H](O)C[C@@H]4C[C@H](O)CC[C@]4(C)[C@H]3C[C@H](O)[C@]12C.[Na+] [Cholic acid (sodium)] | 0 | 5 | –
CN1CC[C@@]23C=C[C@H](O)C[C@@H]2Oc2c(O)ccc(c23)C1 [O‐Desmethyl Galantha mine] | 4 | 5 | –
C=C/C(C)=C/C=C/C(C)=C/C=C1/C(C)=CCCC1(C)C [all-trans-Anhydro Retinol] | 61 | 58 | –
CN1C[C@@H]2C[C@H](C1)c1cccc(=O)n1C2 [N‐Methylcytisine] | 0 | 0 | –
Cl.c1cc2c(c3c1CC1c4cc5c(cc4CCN1C3)OCO5)OCO2 (racemic) [(±)‐Stylopine (hydrochloride)] | 0 | 3 | –
Neoline | 21 | 1 | –
O=C([O-])CC(O)(CC(=O)[O-])C(=O)[O-].[Na+].[Na+].[Na+] [Citric acid (trisodium)] | 8 | 2 | –
C[C@@H]1O[C@@H](O[C@H]2[C@H](O[C@H]3[C@H](O[C@H]4CC[C@]5(C)[C@H]6CC=C7[C@@H]8CC(C)(C)CC[C@]8(C(=O)O)CC[C@@]7(C)[C@]6(C)CC[C@H]5C4(C)C)OC[C@H](O)[C@@H]3O)O[C@H](CO)[C@@H](O)[C@@H]2O)[C@H](O)[C@H](O)[C@H]1O [Raddeanin A] | 4 | 6 | –
O=c1cccc2n1C[C@@H]1CNC[C@H]2C1 [Cytisinicline] | – | – | 0% and 3%
Asiaticoside | 6 | 0 | –
CC=C1[C@H](O[C@@H]2O[C@H](CO)[C@@H](O)[C@H](O)[C@H]2O)OC=C(C(=O)OC)[C@H]1CC(=O)OC[C@H]1O[C@@H](OCCc2ccc(O)cc2)[C@H](O)[C@@H](O)[C@@H]1O (stereo in doubt) [Specnuezhenide] | 1 | 13 | –
C[C@@H]1CC[C@]2(C(=O)O)CC[C@]3(C)C(=CC[C@@H]4[C@@]5(C)CC[C@H](O)[C@](C)(C(=O)O)[C@@H]5CC[C@]43C)[C@@H]2[C@]1(C)O [Ilexgenin A] | 27 | 0 | –
Cl.NCCS [Cysteamine (hydrochloride)] | 23 | 6 | –
Nc1ccc(C(=O)[O-])c(O)c1.O.O.[Na+] | 24 | 6 | –
C=C[C@@H]1C2=CCOC(=O)C2=CO[C@H]1O[C@@H]1O[C@H](CO[C@@H]2O[C@H](CO)[C@@H](O)[C@H](O)[C@H]2O)[C@@H](O)[C@H](O)[C@H]1O [6'-O-beta-D-Glucosylgentiopicroside] | 34 | 15 | –
Echinocystic acid | 45 | 35 | –
Cl.Cl.O=C(C[C@H]1NCCC[C@@H]1O)Cn1cnc2ccccc2c1=O [Febrifugine (dihydrochloride)] | 30 | 2 | –
COc1cc(-c2cc(=O)c3c(O)c(OC)c(O)cc3o2)ccc1O [Jaceosidin] | 0 | 5 | –
COc1ccc(-c2oc3c(CC=C(C)C)c(O)cc(O)c3c(=O)c2O[C@@H]2O[C@@H](C)[C@H](O)[C@@H](O)[C@H]2O)cc1 [Baohuoside I] | 0 | 0 | –
Cc1ncc(C[n+]2csc(CCO)c2C)c(N)n1.Cl.[Cl-] [Thiamine (hydrochloride)] | 2 | 13 | –

Compound | Percentage of motility inhibition 0 h [1] [%] | Percentage of motility inhibition 24 h [2] [%] | Percentage of motility inhibition 24 h (110 µM)
CO[C@]1(CC[C@@H](C)CO[C@@H]2O[C@H](CO)[C@@H](O)[C@H](O)[C@H]2O)O[C@H]2C[C@H]3[C@@H]4CC=C5C[C@@H](O[C@@H]6O[C@H](CO)[C@@H](O)[C@H](O[C@@H]7O[C@H](CO)[C@@H](O)[C@H](O)[C@H]7O)[C@H]6O[C@@H]6O[C@@H](C)[C@H](O)[C@@H](O)[C@H]6O)CC[C@]5(C)[C@H]4CC[C@]3(C)[C@H]2[C@@H]1C [Methyl protogracillin] | 0 | 15 | –
C=C1CC[C@H]2O[C@]2(C)CC[C@@H]2[C@@H]1CC2(C)C [Caryophyllene oxide] | 13 | 13 | –
O.O.O.O.O=C([O-])CC(O)(CC(=O)[O-])C(=O)[O-].[Li+].[Li+].[Li+] [Lithium citrate (tetrahydrate)] | 13 | 0 | –
CCc1ccc(O)c2cc3c(nc12)-c1cc2c(c(=O)n1C3)COC(=O)[C@]2(O)CC [12‐Ethyl‐9‐hydroxycamptothecin] | 16 | 27 | –
Cl.N=C(N)NCCC[C@H](N)C(=O)O [L-Arginine (hydrochloride)] | 20 | 17 | –
CC1(C)[C@@H](O[C@@H]2O[C@H](C(=O)O)[C@@H](O)[C@H](O)[C@H]2O[C@@H]2O[C@H](C(=O)O)[C@@H](O)[C@H](O)[C@H]2O)CC[C@]2(C)[C@H]3C(=O)C=C4[C@@H]5C[C@](C)(C(=O)O)CC[C@]5(C)CC[C@@]4(C)[C@]3(C)CC[C@@H]12 [Licorice-saponin H2] | 0 | 14 | –
C[N+](C)(C)CCOP(=O)([O-])OP(=O)([O-])OC[C@H]1O[C@@H](n2ccc(N)nc2=O)[C@H](O)[C@@H]1O.[Na+] [Citicoline (sodium)] | 4 | 0 | –
CC1=CC(=O)C2(C(C)C)CC12 (centres unmarked) [Umbellulone] | 0 | 1 | –
Protopine | 0 | 0 | –
C=C1C(=O)O[C@@H]2CC(C)=C([C@@H](C)CCCOC(C)=O)[C@@H](O)[C@H]12 [Inulicin] | 0 | 16 | –
C/C=C/C=C/C=C\CC/C=C/C(=O)NCC(C)(C)O [Hydroxy‐α‐sanshool] | 3 | 0 | –
COC(=O)N[C@H](C(=O)N1CCC[C@H]1c1ncc(-c2ccc(-c3ccc(-c4cnc([C@@H]5CCCN5C(=O)[C@@H](NC(=O)OC)C(C)C)[nH]4)cc3)cc2)[nH]1)C(C)C.Cl.Cl [Daclatasvir (dihydrochloride)] | 39 | 2 | –
CC[C@H]1OC(=O)C[C@@H](O)[C@H](C)[C@@H](O[C@@H]2O[C@H](C)[C@@H](O[C@H]3C[C@@](C)(O)[C@@H](O)[C@H](C)O3)[C@H](N(C)C)[C@H]2O)[C@@H](CC=O)C[C@@H](C)C(=O)/C=C/C(C)=C/[C@@H]1CO[C@@H]1O[C@H](C)[C@@H](O)[C@@H](OC)[C@H]1OC.O=C(O)C(O)C(O)C(=O)O [Tylosin (tartr ate)] | 0 | 1 | –
CC(Cc1ccc(O)c(O)c1)C(C)Cc1ccc(O)c(O)c1 (centres unmarked) [Nordihydroguaiaretic acid] | 8 | 21 | –
CN[C@@H]1[C@H](O)[C@H](NC)[C@H]2O[C@@]3(O)C(=O)C[C@@H](C)O[C@H]3O[C@@H]2[C@H]1O.Cl.Cl [Spectinomycin (dihydrochloride)] | 0 | 1 | –
CC1OC2OC3C(OCC(O)C3O)OC(=O)C34CCC(C)(C)CC3C3=CCC5C6(C)CC(O)C(OC7OC(CO)C(O)C(O)C7OC7OCC(OC(=O)CC(C)(O)CC(=O)OC1C(OC1OCC(O)C(O)C1O)C2O)C(O)C7O)C(C)(CO)C6CCC5(C)C3(C)CC4O (centres unmarked) [Tubeimoside II] | 0 | 2 | –
Nc1ncnc2nc[nH]c12.Nc1ncnc2nc[nH]c12.O=S(=O)(O)O [Adenine (hemisulfate)] | 3 | 5 | –
COC(=O)C1=COC(O[C@@H]2O[C@H](CO)[C@@H](O)[C@H](O)[C@H]2O)/C(=C/C(=O)O)C1CC(=O)OCCc1ccc(O)c(O)c1 (some centres unmarked) [Oleuropeinic acid] | 0 | 8 | –
CC(C)C[C@H](NP(=O)([O-])O[C@H]1O[C@H](C)[C@@H](O)[C@H](O)[C@@H]1O)C(=O)N[C@@H](Cc1c[nH]c2ccccc12)C(=O)[O-].[Na+].[Na+] [Phosphoramidon (Disodium)] | 19 | 7 | –
CC(C)=CCC[C@](C)(O)[C@H]1CC[C@]2(C)[C@@H]1[C@H](O)C[C@@H]1[C@@]3(C)CC[C@H](O)C(C)(C)[C@@H]3CC[C@]12C [(20S)-Protopanaxadiol] | 21 | 10 | –
C1CNCCN1.O.O.O.O.O.O [Piperazine (hexahydrate)] | 58 | 12 | –
N[C@@H](CCC(=O)O)C(=O)[O-].[Na+] [L-Glutamic acid (monosodium salt)] | 1 | 0 | –
